Reference: the RepoRT retention time repository (doi:10.1093/pcp/pcn183)
Counter-ions that a name gives are not always drawn.

Assay: RP, Waters ACQUITY UPLC BEH C18, 38 °C, 0.24 mL/min; A: water + 0.1% formic acid, pH 3; B: acetonitrile + 0.1% formic acid, pH 3; gradient (min/%B) 0/0 0.25/0 0.4/9 0.8/17 1.9/100 2.1/100 2.11/0 3/0
Conditions: stereoisomer not certain

Row | SMILES | LC retention time [min]
1 | NCC(CC(=O)O)c1ccc(Cl)cc1 (racemic) [(+-)-Baclofen] | 1.24
2 | CCCCCCCCCC(=O)OCC(O)COP(=O)([O-])OCC[N+](C)(C)C (configuration not stated) [Phosphocholine,1-Decanoyl-2-Hydroxy-sn-Glycero-3-] | 1.65
3 | O=[N+]([O-])c1ccc(OP(=O)(O)O)cc1 [4-Nitrophenyl phosphate disodium salt hexahydrate] | 0.92
4 | O=C1c2c(O)cc(O)cc2OC(c2ccc(O)c(O)c2)C1O (racemic) [(+-)-Taxifolin] | 1.45
5 | O=C(O)C(O)C(O)C(O)C(O)C(=O)O (configuration not stated) [mucic acid] | 2.13
6 | CCC=CCC1C(=O)CCC1CC(=O)OC (configuration not stated) [Methyl Jasmonate] | 1.93
7 | O=c1cc(-c2ccc(O)cc2)oc2c(C3OC(CO)C(O)C(O)C3O)c(O)cc(O)c12 (configuration not stated) [Vitexin] | 1.39
8 | CC(=O)N[C@@H]1C(O)O[C@H](CO)[C@@H](O)[C@@H]1O (stereo partly drawn) [N-acetyl-D-mannosamine] | 0.18
9 | CCCCCCC(=O)O [n-heptanoic acid] | 0.29
10 | NC(=O)C[C@H](N)C(=O)O [L-Asparagine] | 0.16
11 | C[N+](C)(C)[O-] [Trimethylamine N-oxide dihydrate] | 0.18
12 | OCC(O)C(O)C(O)CO (configuration not stated) | 0.17
13 | COc1ccc(C2CC(=O)c3c(O)cc(OC4OC(COC5OC(C)C(O)C(O)C5O)C(O)C(O)C4O)cc3O2)cc1O (configuration not stated) [Hesperidin] | 1.45
14 | O=C(O)CNC(=O)Cc1ccccc1 [Phenaceturic acid] | 1.36
15 | Nc1ccccc1 [Aniline] | 0.42
16 | CSCC[C@H](N)CC(=O)O [L-beta-homomethionine-HCl] | 0.66
17 | CC(=O)NCCCCN [N-acetyl putrescine hydrochloride] | 0.23
18 | OCC1OC(OC2C(CO)OC(O)(CO)C2O)C(O)C(O)C1O (configuration not stated) | 0.19
19 | C[C@@H](O)[C@H](N)CC(=O)O [L-beta-homothreonine] | 0.19
20 | Nc1ccn(C2OC(CO)C(O)C2O)c(=O)n1 (configuration not stated) [Cytidine,cell culture tested] | 0.34
21 | CC(CCC(=O)O)C(=O)O (configuration not stated) [2-Methylglutaric Acid] | 1.16

Row | SMILES | LC retention time [min]
22 | Cc1ncc(C[n+]2csc(CCOP(=O)(O)O)c2C)c(N)n1 [Thiamine monophosphate chloride dihydrate] | 0.19
23 | O=C1CC(c2ccc(O)c(O)c2)Oc2cc(OC3OC(CO)C(O)C(O)C3O)cc(O)c21 (configuration not stated) [eriodictyol-7-O-glucoside] | 1.41
24 | O=P(O)(O)OCC(O)CO (racemic) [rac-Glycerol 3-phosphoate disodium salt hexahydrate] | 0.16
25 | O=C(O)C=C(CC(=O)O)C(=O)O [trans-Aconitic acid] | 0.63
26 | CC1OC(OCC2OC(Oc3c(-c4ccc(O)cc4)oc4cc(O)cc(O)c4c3=O)C(O)C(O)C2O)C(O)C(O)C1O (configuration not stated) [kaempferol-3-O-rutinoside] | 1.42
27 | O=C(O)Cc1cc(O)ccc1O [Homogentisic acid] | 1.1
28 | O=c1cccc[nH]1 [2-Hydroxypyridine] | 0.68
29 | C[C@H](N)C(=O)O [L-Alanine] | 0.17
30 | Nc1ncnc2c1ncn2C1CC(O)C(COP(=O)(O)O)O1 (configuration not stated) [2'-Deoxyadenosine-5'-monophosphate] | 0.62
31 | NC(=O)NCCC[C@H](N)C(=O)O [L-Citrulline] | 0.18
32 | CSC[C@H](N)C(=O)O [S-Methyl-L-cysteine] | 0.2
33 | CNCC(=O)O [Sarcosine] | 0.16
34 | Cc1ncc(CO)c(CO)c1O [Pyridoxine] | 0.53
35 | OCC1OC(OC2C(Oc3cc4c(O)cc(O)cc4[o+]c3-c3ccc(O)c(O)c3)OC(CO)C(O)C2O)C(O)C(O)C1O (configuration not stated) | 1.16
36 | COc1cc(C=CCO)cc(OC)c1O [Sinapyl alcohol] | 2.13
37 | CNCC(O)c1cccc(O)c1 [(R)-(-)-Phenylephrine hydrochloride] | 0.59
38 | COc1cccc(C=CC(=O)O)c1 [3-Methoxycinnamic acid] | 1.67
39 | O=C(O)CCC(=O)O [Succinic acid] | 0.49
40 | C[n+]1cccc(C(=O)[O-])c1 [Trigonelline hydrochloride] | 0.19
41 | OCC1OC(OCC2OC(O)(CO)C(O)C2O)C(O)C(O)C1O (configuration not stated) [Palatinose Monohydrate] | 0.19
42 | O=C(O)c1cc(O)ccc1O [2,5-dihydroxy benzoic acid] | 1.25

Row | SMILES | LC retention time [min]
43 | COc1cc(CC(=O)O)ccc1O [Homovanillic acid] | 1.33
44 | CN(C)c1ccccc1 [N,N-Dimethylaniline] | 1.11
45 | O=C(O)C[C@@H]1CCCN1 [L-beta-homoproline-HCl] | 0.25
46 | NOCC(=O)O [Aminooxyacetic acid Hemihydrochloride] | 0.17
47 | Nc1c(O)cccc1C(=O)O [3-Hydroxyanthranilic acid] | 1.13
48 | CC(C)C(O)(CC(=O)O)C(=O)O (configuration not stated) [2-Isopropylmalic acid] | 1.21
49 | CC([NH3+])C(=O)NC(C)C(=O)[O-] [D-Ala-D-ala] | 0.19
50 | CC(O)CN (stereo not drawn) [R-(-)-1-Amino-2-propanol] | 0.17
51 | OCC1OC(OC2C(O)C(O)COC2(O)CO)C(O)C(O)C1O (configuration not stated) | 0.18
52 | COc1ccc(C2CC(=O)c3c(O)cc(OC4OC(CO)C(O)C(O)C4OC4OC(C)C(O)C(O)C4O)cc3O2)cc1 (configuration not stated) [Poncirin] | 1.56
53 | CS(=O)(=O)CCC(N)C(=O)O [L-Methionine sulfone] | 0.18
54 | NCC(O)CCC(N)C(=O)O (racemic) [DL-5-Hydroxylysine  hydrochloride] | 0.14
55 | CNC(C)C(=O)O (racemic) [N-Methyl-DL-Alanine] | 0.18
56 | OCC1OC(OC2(CO)OC(CO)C(O)C2O)C(O)C(O)C1O (configuration not stated) [Sucrose] | 0.22
57 | NC(CO)CC(=O)O [L-beta-homoserine [(R)-3-Amino-4-hydroxy-butyric acid (+)]] | 0.16
58 | NCCCCCN [Cadaverine] | 0.14
59 | Nc1ccccc1C(=O)CC(N)C(=O)O [L-Kynurenine] | 1.1
60 | C[N+](C)(C)C[C@H](O)CC(=O)[O-] [L-Carnitine hydrochloride] | 0.18
61 | N[C@H]1C(O)O[C@H](CO)[C@@H](O)[C@@H]1O (stereo partly drawn) [D-(+)-Glucosamine hydrochloride] | 0.15
62 | Nc1ncnc2nc[nH]c12 [Adenine] | 0.32

Second part, the molecule after the results:

Row | LC retention time [min] | SMILES
63 | 0.14 | NCCCNCCCCNCCCN [Spermine]
64 | 1.64 | O=C(O)/C=C/c1ccccc1 [trans-Cinnamic acid]
65 | 0.31 | CC(=O)NC(CC(=O)O)C(=O)O (racemic) [N-Acetyl-DL-aspartic acid]
66 | 1.34 | O=c1ccc2ccc(O)c(O)c2o1 [Daphnetin]
67 | 0.61 | N[C@@H](Cc1ccc(O)cc1)C(=O)O [L-Tyrosine]
68 | 1.18 | c1cnc2c(c1)ccc1cccnc12 [1,10-Phenanthroline monohydrate]
69 | 1.25 | O=C(O)c1ccc(O)cc1 [4-Hydroxybenzoate]
70 | 1.57 | O=C(C=Cc1ccc(O)cc1)OCC1OC(Oc2c(-c3ccc(O)cc3)oc3cc(O)cc(O)c3c2=O)C(O)C(O)C1O (configuration not stated) [Tiliroside]
71 | 0.21 | CN(C)C(=N)N=C(N)N [1,1-Dimethylbiguanide hydrochloride]
72 | 0.17 | O=CC(O)CO (racemic) [DL-Glyceraldehyde]
73 | 0.47 | CN1CCCC1c1cccnc1 (racemic) [(-)-Nicotine ( solution 1.0 mg/mL+/-5% in methanol)]
74 | 1.16 | O=C(O)Cc1ccc(O)c(O)c1 [3,4-dihydroxyphenylacetic acid]
75 | 0.16 | NCCC(=O)O [beta-Alanine]
76 | 1.98 | CCCCCCCCCCCCCCCC(O)C(N)CO [D-erythro-Dihydrosphingosine]
77 | 0.54 | CC(C(=O)O)C(=O)O [Methylmalonic acid]
78 | 1.58 | O=C(O)CCCCCCCCC(=O)O [Sebacic acid]
79 | 0.15 | N[C@@H](Cc1cnc[nH]1)C(=O)O [L-Histidine]
80 | 1.21 | CCCCCCN [Hexylamine]
81 | 1.15 | O=C(O)c1ccco1 [2-Furoic acid]
82 | 1.35 | O=c1cc(-c2ccc(O)c(O)c2)oc2c(C3OC(CO)C(O)C(O)C3O)c(O)cc(O)c12 (configuration not stated) [Orientin]
83 | 0.12 | NC(=O)NC(CC(=O)O)C(=O)O (racemic) [Carbamoyl-DL-aspartic Acid]
84 | 0.2 | O=C1CCNC(=O)N1 [5,6-Dihydrouracil]
85 | 1.34 | O=c1c(-c2ccc(O)cc2)coc2cc(OC3OC(CO)C(O)C(O)C3O)ccc12 (configuration not stated) [Daidzin]
86 | 1.16 | N[C@H](CC(=O)O)Cc1ccccc1 [L-beta-Homophenylalanine hydrochloride]
87 | 0.25 | CN1C=CC=CC1=CN=O [Pyridine-2-aldoxime methochloride]
88 | 1.13 | Nc1ccc(C(=O)O)cc1 [4-Aminobenzoic acid]
89 | 0.19 | CC(CN)C(=O)O (racemic) [DL-3-Aminoisobutyric acid]
90 | 0.68 | CC(O)(CC(=O)O)CC(=O)O [3-Hydroxy-3-methylglutarate]
91 | 1.08 | Nc1nc2c(ncn2C2OC(CO)C(O)C2O)c(=O)[nH]1 (configuration not stated) [Guanosine]
92 | 1.06 | CC(O)C(=O)SCC(NC(=O)CCC(N)C(=O)O)C(=O)NCC(=O)O (configuration not stated) [S-Lactoylglutathione]
